Measured values reported in patent US20230407245A1, “Media and methods for establishing and maintaining early embryo-like cells” (BGI SHENZHEN GROUP HOLDINGS CO., LIMITED, priority 2020, published 2023).

Test system: primed human PSCs
Assay: Conversion of primed human PSCs to ICLCs, RT-qPCR of preimplantation ICM markers
Format: cell-based
Details: for expression of preimplantation ICM markers (RT-qPCR) in ICLCs with a different dosage of one component, compared to primed human PSCs: H9, 4CL medium 1 with PD0325901 0.5 μM, TSA 20 nM, DZNep 5, 20 or 50 nM
Method: All provided human PSCs were routinely maintained on Matrigel™ or Geltrex™ coated plates in mTeSR1 or E8 medium. Generally, cells were passaged every 4 to 5 days with 0.5 mM EDTA. For passaging, cells were washed with PBS once and treated with 0.5 mM EDTA for 5 mins. Then, EDTA was removed and cells were detached as small clumps using a Pasteur pipette with mTeSR1 or E8 medium. Primed human PSCs were grown in an incubator under normoxic conditions (37° C., 5% CO2).
One day before initiation of conversion, primed human PSCs were washed with PBS once and dissociated into single cells and plated at a density of 1,000 to 1,500 cells/cm 2 on feeder in mTeSR1 or E8 medium supplemented with 10 μM Y27632. Twenty-four hours later, culture medium was switched to 4CL medium 1. The culture medium was refreshed with the same medium every 24 hours. Colonies became round and domed-shape in 24 to 48 hours. Cells were passaged every 3 to 4 days. For passaging, cells were dissociated into single cells using TrypLE: 0.5 mM EDTA (1:1) and plated at a density of 1,000 to 1,500 cells/cm 2 on feeder (feeders were seeded on Geltrex™/Matrigel™ pre-treated plate) (FIG. 1). The ICLCs induction and maintenance can be conducted under hypoxic condition (37° C., 5% CO2, 5% O2), or normoxic condition (37° C., 5% CO2, 21% O2) (FIG. 34), preferably hypoxia condition.
Using the same procedures of example 1, except plating cells on 1% (v/v) Geltrex™ in DMEM-F12 (cat #) coated plates instead of on feeder cells.
Primed human PSCs were cultured following the same procedures of example 1. One day before initiation of the conversion, primed human PSCs were dissociated into single cells and plated 60,000 cells/well in Aggrewell™ 800 plates using mTeSR1 or E8 medium supplemented with 10 μM Y27632. Twenty-four hours later, culture medium was changed into 4CL medium 1, culture condition was then switched to hypoxic condition. Cells formed small spheres in 3 days. The spheres were then lifted and transferred to flasks (Greiner Bio-One, 658190) for suspension culture. Medium was refreshed daily. Cells were passaged every 4 to 5 days. For passaging, cells were dissociated into single cells using TrypLE: 0.5 mM EDTA (1:1), then cells were resuspended in 4CL medium 1 at a density of 150,000 cells/ml. The resuspended cells were added into flasks (Greiner Bio-One, 658190) for suspension culture. Cells formed small aggregates in 24 hours. Generally, cells were converted to ICLCs in approximately 3 weeks after initiation.
Same as example 1, but different dosages of either PD0325901, DZNep, or TSA were also used: PD0325901, 0.5 μM; TSA, 20 nM; DZNep, 5 nM, 20 nM or 50 nM.

In the case of Nc1nccc2c1ncn2[C@@H]1C=C(CO)[C@@H](O)[C@H]1O [DZNep, 3-deazaneplanocin A], the “expression of preimplantation ICM markers (RT-qPCR) in ICLCs with a different dosage of one component, compared to primed human PSCs” value is reported as “significantly induced”.

For O=C1O[C@H]([C@@H](O)CO)C(O)=C1O [L-ascorbic acid], the “expression levels of ICM specific genes such as DNMT3L, STELLA, DPPA5, KLF17” value (final concentration of 40 to 70 ng/mL) was “potently increases”.

In the case of O=C(NOC[C@H](O)CO)c1ccc(F)c(F)c1Nc1ccc(I)cc1F [PD0325901], the “expression of preimplantation ICM markers (RT-qPCR) in ICLCs with a different dosage of one component, compared to primed human PSCs” value is reported as “significantly induced”.

With CC(/C=C/C(=O)NO)=C\[C@@H](C)C(=O)c1ccc(N(C)C)cc1 [TSA, trichostatin A] the “expression of preimplantation ICM markers (RT-qPCR) in ICLCs with a different dosage of one component, compared to primed human PSCs” value was “significantly induced”.
